Reference: patent publication US9505725B2, “Crystalline and mesomorphous forms of an AKT inhibiting pyrimidinyl-cyclopentane compound, compositions and methods thereof” (priority 2012, dated 2016)
Like-named read-outs stand apart in the source and are kept apart here.

Tests used:
[1] = Hygroscopicity / water sorption analysis; type: physicochemical; conditions: continuous water sorption profile at 25° C. from 0-90% RH
[2] = XRPD after exposure to water vapor (relative humidity); type: physicochemical; conditions: room temperature, different RH conditions, 5-7 days
[3] = Variable temperature XRPD (thermal stability of the solid form); type: physicochemical; conditions: heating, XRPD as a function of temperature
Protocol: Heating the product of Example 1 leads to loss in structure (diffracted peaks start to disappear in the 100-160° C. range) and the solid-state form becomes amorphous.
At temperatures ≧80° C., there is substantial loss of crystallinity. In both samples, they appear to be X-ray amorphous at 90° C. and above (due to melting of the lattice solvent and dissolution of the solid phase in it as confirmed by hot stage microscopy).

[4] = Critical micelle concentration in propylene glycol caprylate (Capryol 90); type: physicochemical; conditions: in propylene glycol caprylate (e.g., Capryol 90)
Protocol: Such high doses are generally unachievable with active pharmaceutical ingredients in the lipid like liquid fill solvent systems. […] The critical micelle concentration for GDC-0068 in propylene glycol caprylate (e.g., Capryol 90™) was determined to be 0.945 g/g.

[5] = forms isolated in Example 14 of U.S. Pat. No. 8,063,050; cited from earlier work
[6] = Solubility in solvents, antisolvents and liquid fill solvents; type: physicochemical; conditions: organic solvent or mixture
Excerpt: In one example, antisolvents include pentane, hexane, cyclohexane, heptane, ethyl acetate, iso-propyl acetate, methyl t-butyl ether (MTBE) and methyl iso-butyl ketone.
In one example, solvents include water, alcohols such as methanol, ethanol, isopropanol, 2-butanol, t-butanol and 2-methoxy ethanol, polar ethers such as tetrahydrofuran and 2-methyltetrahydrofuran, toluene, chloroform, dichloromethane, 1,2-dichloroethane and acetone.

For `CC(C)NC[C@@H](C(=O)N1CCN(c2ncnc3c2[C@H](C)C[C@H]3O)CC1)c1ccc(Cl)cc1.Cl` [Example 1, (S)-2-(4-chlorophenyl)-1-(4-((5R,7R)-7-hydroxy-5-methyl-6,7-dihydro-5H-cyclopenta[d]pyrimidin-4-yl)piperazin-1-yl)-3-(isopropylamino)propan-1-one monohydrochloride], the deliquescence point [1] was ~75 % RH, the “effect of water vapor exposure on crystallinity” value [2] was “loses crystallinity” and the “temperature range in which diffracted peaks start to disappear (loss in structure, becomes amorphous)” value [3] was 100-160 °C.

For `CC(C)NC[C@@H](C(=O)N1CCN(c2ncnc3c2[C@H](C)C[C@H]3O)CC1)c1ccc(Cl)cc1` [GDC-0068, (S)-2-(4-chlorophenyl)-1-(4-((5R,7R)-7-hydroxy-5-methyl-6,7-dihydro-5H-cyclopenta[d]pyrimidin-4-yl)piperazin-1-yl)-3-(isopropylamino)propan-1-one], the critical micelle concentration [4] is given as 0.945 g/g and the hygroscopicity [5] is given as “hygroscopic”.

For `CC(C)NC[C@@H](C(=O)N1CCN(c2ncnc3c2[C@H](C)C[C@H]3O)CC1)c1ccc(Cl)cc1.Cl` [compound of formula I, (S)-2-(4-chlorophenyl)-1-(4-((5R,7R)-7-hydroxy-5-methyl-6,7-dihydro-5H-cyclopenta[d]pyrimidin-4-yl)piperazin-1-yl)-3-(isopropylamino)propan-1-one monohydrochloride], the solubility ([6]; antisolvents (organic liquids), pentane, hexane, cyclohexane, heptane, ethyl acetate, iso-propyl acetate, MTBE, methyl iso-butyl ketone, read-out: solubility in antisolvents) was < 20 mg/mL and the solubility ([6]; solvents (water and organic liquids), water, methanol, ethanol, isopropanol, 2-butanol, t-butanol, 2-methoxy ethanol, THF, 2-methyltetrahydrofuran, toluene, chloroform, dichloromethane, 1,2-dichloroethane, acetone, read-out: solubility in solvents) was > 20 mg/mL.
